Like-named read-outs stand apart in the source and are kept apart here.
How the values were obtained:
human P2Y1 receptor [1] = biological target: T1, human P2Y1 receptor (Homo sapiens, UniProt P47900); assay: [3H]MRS2279 binding assay, membranes from astrocytoma cells
human P2Y1 receptor [2] = biological target: T1, human P2Y1 receptor; assay: Yeast liquid growth assay; assay type: cell-based
human P2Y1 receptor [3] = biological target: T1, human P2Y1 receptor; assay type: cell-based; conditions: for Calcium response on addition of nucleotide: control experiments
P2Y1 receptor = conditions: read-out: KB previously reported; cited from earlier work
[4] = read-out: Binding (Ki), Astrocytoma, competition for [3H]MRS2279 (8 nM) binding, 30 min, 4°C
[5] = read-out: Functional potency (EC50), Calcium (astrocytoma), 1321N1 astrocytoma cells, FlexStation, n = 3

T1 sequence (P47900 whole entry): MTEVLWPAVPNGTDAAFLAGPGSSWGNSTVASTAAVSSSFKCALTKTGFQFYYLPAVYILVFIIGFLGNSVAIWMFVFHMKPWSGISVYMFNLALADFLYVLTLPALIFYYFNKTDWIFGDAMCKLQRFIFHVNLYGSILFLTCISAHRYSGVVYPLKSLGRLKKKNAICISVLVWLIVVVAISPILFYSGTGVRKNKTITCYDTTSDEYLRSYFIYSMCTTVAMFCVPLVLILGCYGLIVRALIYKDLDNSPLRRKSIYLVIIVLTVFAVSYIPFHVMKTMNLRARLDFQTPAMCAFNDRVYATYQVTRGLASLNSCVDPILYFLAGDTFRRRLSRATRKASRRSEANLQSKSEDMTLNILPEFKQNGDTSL

Compound: Nc1ncnc2c1ncn2[C@@H]1O[C@H](COP(=O)(O)OP(=O)(O)S)[C@@H](O)[C@H]1O (stereo partly drawn) [ADP-β-S, adenosine 5′-O-(2-thio-diphosphate)]
- Ki (human P2Y1 receptor [1]): 710 nM
- EC50 (human P2Y1 receptor [2]): 21000 nM
- EC50 (human P2Y1 receptor [3]): 86 ± 42 nM

Compound: 2-hexylthioadenosine 5′-monophosphate [HT-AMP]
- Ki (human P2Y1 receptor [1]; [4]): 1700 nM
- EC50 (human P2Y1 receptor [3]; [5]): 16 ± 11 nM

Compound: Nc1ccc(CCSc2nc(N)c3ncn([C@@H]4O[C@H](COP(=O)(O)OP(=O)(O)OP(=O)(O)O)[C@@H](O)[C@H]4O)c3n2)cc1 [PAPET-ATP, 2-[4-amino (2-phenylethyl)thio]-ATP]
- Ki (human P2Y1 receptor [1]; [4]): 1100 nM
- EC50 (human P2Y1 receptor [3]; [5]): 28 ± 13 nM

Compound: O=c1ccn([C@@H]2O[C@H](COP(=O)(O)OP(=O)(O)OP(=O)(O)O)[C@@H](O)[C@H]2O)c(=O)[nH]1 [UTP, uridine 5’-triphosphate]
- Calcium response on addition of nucleotide (human P2Y1 receptor [3]): did not induce any response

Compound: O=c1ccn([C@@H]2O[C@H](COP(=O)(O)OP(=O)(O)O)[C@@H](O)[C@H]2O)c(=O)[nH]1 [UDP, uridine 5’-diphosphate]
- Yeast growth in presence of nucleotide (human P2Y1 receptor [2]; data not shown): Basal growth was low
- Calcium response on addition of nucleotide (human P2Y1 receptor [3]): did not induce any response

Compound: Nc1ncnc2c1ncn2[C@@H]1O[C@H](COP(=O)(O)OP(=O)(O)O)[C@@H](O)[C@H]1O [ADP, adenosine 5′-diphosphate]
- EC50 (human P2Y1 receptor [2]): 1800 ± 650 nM
- EC50 (human P2Y1 receptor [3]): 58 ± 17 nM

Compound: Nc1ncnc2c1ncn2[C@@H]1O[C@H](COP(=O)(O)OP(=O)(O)OP(=O)(O)O)[C@@H](N)[C@H]1O [3AM-ATP, 3′-amino-3′-deoxy-ATP]
- EC50 (human P2Y1 receptor [3]; [5]): 3000 ± 1500 nM

Compound: CNc1ncnc2c1ncn2[C@H]1C[C@H](OP(=O)(O)O)[C@@H](COP(=O)(O)O)O1 [MRS2179, N^6-methyl-2′-deoxyadenosine-3′,5′-bisphosphate]
- Kb (P2Y1 receptor): 177 nM
- Effect on ADP concentration-response curve in yeast growth assay (human P2Y1 receptor [2]; MRS2179 fixed at 10^-6, 10^-5, 10^-4 M, agonist ADP): right shift in the curves
- Kb (human P2Y1 receptor [3]; KB (Schild analysis), antagonism of ADP-induced calcium mobilization): 164 nM

— article PMC1350429 (Purinergic Signalling, 2005)
